21 molecules from patent US20240109917A1 (ACTELION PHARMACEUTICALS LTD, priority 2020, published 2024) can be followed below.

One assay has as its target PDGFRβ (Rattus norvegicus (Rat), UniProt Q05030). Briefly: PDGFRβ Cellular Assay (PDGFRb P-Y751 HTRF in A10 cells stimulated with PDGF-BB). The assay is classed as cell-based. The settings on record: read-out: PDGFR Cellular IC50. The method, boiled down: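 Rat A10 cells, plated overnight, were treated with compound for 3 hours, then stimulated with PDGF-BB (working stock 100 ng/mL in 10% FBS medium). After lysis, PDGFRβ P-Y751 was detected by HTRF.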

Assay [1] has as its target His6-TEV-PDGFRβ (557-1016) (Homo sapiens (Human), UniProt P09619). Briefly: PDGFRβ HTRF Assay. The settings on record: read-out: PDGFR HTRF IC50. Type of assay: biochemical. The method, boiled down:
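Human PDGFRβ (557-1016) pre-incubated with compound for 30 min at RT in pH 7.5 HEPES/MgCl2/EGTA/Brij-35/DTT buffer. Reaction started with ATP and TK-biotin peptide, run 3 h at RT, then quenched with EDTA-containing Eu-cryptate antibody/streptavidin-XL665. HTRF 665/620 nm ratio read after 60 min; percent inhibition relative to DMSO and 10 μM imatinib controls.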
(In TR-FRET formats the signal depends on donor and acceptor labels being close together.)

Assay [2] deals with Tb-labeled inactive PDGFRβ (Homo sapiens (Human), UniProt P09619). Briefly: PDGFRβ LanthaScreen Assay. The note with it: read-out: PDGFR Lantha IC50. The assay is classed as binding.
Tb-labeled inactive PDGFRβ, sequence (P09619 33-1106): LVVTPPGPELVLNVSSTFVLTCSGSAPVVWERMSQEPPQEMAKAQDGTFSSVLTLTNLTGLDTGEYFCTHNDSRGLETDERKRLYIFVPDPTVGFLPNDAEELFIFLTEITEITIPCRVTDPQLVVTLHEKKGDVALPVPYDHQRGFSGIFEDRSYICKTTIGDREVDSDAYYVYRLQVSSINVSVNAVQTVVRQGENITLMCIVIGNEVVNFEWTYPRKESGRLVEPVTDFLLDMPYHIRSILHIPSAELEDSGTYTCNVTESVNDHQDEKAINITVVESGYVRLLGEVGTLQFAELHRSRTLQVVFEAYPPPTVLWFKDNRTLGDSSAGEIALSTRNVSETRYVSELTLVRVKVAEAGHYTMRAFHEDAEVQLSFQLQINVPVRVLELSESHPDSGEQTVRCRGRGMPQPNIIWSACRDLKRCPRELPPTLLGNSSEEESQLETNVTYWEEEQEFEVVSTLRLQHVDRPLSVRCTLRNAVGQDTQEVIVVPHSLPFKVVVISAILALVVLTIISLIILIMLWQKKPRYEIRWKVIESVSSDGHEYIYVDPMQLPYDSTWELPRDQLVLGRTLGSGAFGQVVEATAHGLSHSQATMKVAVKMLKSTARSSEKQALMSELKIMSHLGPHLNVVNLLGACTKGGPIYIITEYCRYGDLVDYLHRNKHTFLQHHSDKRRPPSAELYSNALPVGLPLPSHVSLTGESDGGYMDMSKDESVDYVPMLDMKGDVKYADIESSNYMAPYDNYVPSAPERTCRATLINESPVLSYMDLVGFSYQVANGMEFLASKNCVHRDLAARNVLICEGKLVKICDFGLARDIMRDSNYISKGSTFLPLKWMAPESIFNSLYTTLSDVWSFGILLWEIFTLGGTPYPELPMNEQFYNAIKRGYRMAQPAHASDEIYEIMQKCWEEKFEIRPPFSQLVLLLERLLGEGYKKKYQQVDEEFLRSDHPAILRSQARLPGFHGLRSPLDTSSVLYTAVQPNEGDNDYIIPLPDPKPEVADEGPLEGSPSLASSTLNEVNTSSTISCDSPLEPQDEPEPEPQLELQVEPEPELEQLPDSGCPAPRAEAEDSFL

PDGFRβ, sequence (Q05030 32-1097): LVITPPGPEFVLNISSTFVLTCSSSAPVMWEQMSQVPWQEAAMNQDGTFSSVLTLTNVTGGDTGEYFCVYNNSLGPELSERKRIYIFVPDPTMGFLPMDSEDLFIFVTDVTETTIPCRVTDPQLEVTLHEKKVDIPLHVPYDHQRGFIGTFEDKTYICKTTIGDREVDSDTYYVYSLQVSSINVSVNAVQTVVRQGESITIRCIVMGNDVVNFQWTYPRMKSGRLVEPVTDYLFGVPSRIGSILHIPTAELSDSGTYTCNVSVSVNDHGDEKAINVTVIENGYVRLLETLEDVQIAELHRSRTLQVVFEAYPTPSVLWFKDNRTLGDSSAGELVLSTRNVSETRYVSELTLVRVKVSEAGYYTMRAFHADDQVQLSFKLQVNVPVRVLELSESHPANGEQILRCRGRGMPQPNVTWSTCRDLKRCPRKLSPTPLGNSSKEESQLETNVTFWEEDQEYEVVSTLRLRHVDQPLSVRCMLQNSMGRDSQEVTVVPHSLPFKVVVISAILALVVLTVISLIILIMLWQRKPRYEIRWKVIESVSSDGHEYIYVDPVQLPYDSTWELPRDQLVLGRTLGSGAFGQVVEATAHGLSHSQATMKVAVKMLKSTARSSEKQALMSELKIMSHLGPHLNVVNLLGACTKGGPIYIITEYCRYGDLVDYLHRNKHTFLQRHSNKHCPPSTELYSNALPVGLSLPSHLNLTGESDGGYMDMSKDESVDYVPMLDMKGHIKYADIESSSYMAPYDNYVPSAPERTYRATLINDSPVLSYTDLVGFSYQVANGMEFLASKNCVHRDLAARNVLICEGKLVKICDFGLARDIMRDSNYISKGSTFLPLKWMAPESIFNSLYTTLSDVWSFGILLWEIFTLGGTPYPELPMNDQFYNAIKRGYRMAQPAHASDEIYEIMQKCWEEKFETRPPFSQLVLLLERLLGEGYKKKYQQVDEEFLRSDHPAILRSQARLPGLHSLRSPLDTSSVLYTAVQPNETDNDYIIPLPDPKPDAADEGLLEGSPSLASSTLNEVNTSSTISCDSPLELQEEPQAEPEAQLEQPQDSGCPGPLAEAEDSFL
His6-TEV-PDGFRβ (557-1016), sequence (P09619 557-1016): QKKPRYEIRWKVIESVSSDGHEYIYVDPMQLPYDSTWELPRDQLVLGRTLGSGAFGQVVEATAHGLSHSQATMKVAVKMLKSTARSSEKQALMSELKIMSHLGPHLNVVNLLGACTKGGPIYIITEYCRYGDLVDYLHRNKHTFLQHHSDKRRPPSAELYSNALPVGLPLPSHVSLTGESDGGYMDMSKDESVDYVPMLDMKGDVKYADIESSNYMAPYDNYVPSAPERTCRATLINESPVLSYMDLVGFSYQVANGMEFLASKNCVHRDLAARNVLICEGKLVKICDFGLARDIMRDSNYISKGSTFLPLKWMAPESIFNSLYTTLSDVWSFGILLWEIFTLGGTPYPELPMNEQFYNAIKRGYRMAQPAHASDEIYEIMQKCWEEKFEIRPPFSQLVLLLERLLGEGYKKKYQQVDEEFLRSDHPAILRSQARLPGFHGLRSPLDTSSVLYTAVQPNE

As a reminder, the IC50 is the midpoint of a concentration-inhibition curve. As to `CC(=O)N1CCN(CCNC(=O)c2cnc(C)c(NC(=O)c3cnn4cc(-c5cnn(C)c5)sc34)c2)CC1` [Example 129, N-(5-((2-(4-acetylpiperazin-1-yl)ethyl)carbamoyl)-2-methylpyridin-3-yl)-2-(1-methyl-1H-pyrazol-4-yl)pyrazolo[5,1-b]thiazole-7-carboxamide], the figures for the concentration for half-maximal inhibition (IC50) (at PDGFRβ; in assay [1]; in assay [2]) were over 3000 nM, 2.9 nM and 87.1 nM, respectively.

Regarding `Cc1ncc(C(=O)NCCN2CCCC2(C)C)cc1NC(=O)c1cnn2cc(-c3cncnc3)sc12` [Example 139, N-(5-((2-(2,2-dimethylpyrrolidin-1-yl)ethyl)carbamoyl)-2-methylpyridin-3-yl)-2-(pyrimidin-5-yl)pyrazolo[5,1-b]thiazole-7-carboxamide], the IC50 at PDGFRβ was 164 nM; in assay [1], 5.3 nM; in assay [2], 182 nM.

As to `Cc1ncc(C(=O)NCCN2CCCC2(C)C)cc1NC(=O)c1cnn2cc(-c3cnn(CCO)c3)sc12` [Example 140, N-(5-((2-(2,2-dimethylpyrrolidin-1-yl)ethyl)carbamoyl)-2-methylpyridin-3-yl)-2-(1-(2-hydroxyethyl)-1H-pyrazol-4-yl)pyrazolo[5,1-b]thiazole-7-carboxamide], the concentration for half-maximal inhibition (IC50) at PDGFRβ is 309 nM; in assay [1], 0.5 nM; in assay [2] it was 4.9 nM.

Regarding `Cc1ncc(C(=O)NCCN2CCCC2(C)C)cc1NC(=O)c1cnn2cc(-c3ccc(=O)[nH]n3)sc12` [Example 141, N-(5-((2-(2,2-dimethylpyrrolidin-1-yl)ethyl)carbamoyl)-2-methylpyridin-3-yl)-2-(6-oxo-1,6-dihydropyridazin-3-yl)pyrazolo[5,1-b]thiazole-7-carboxamide], the IC50 on PDGFRβ was over 3000 nM; in assay [1], 1.8 nM; in assay [2], 18.6 nM.

Consider `COCCn1cc(-c2cn3ncc(C(=O)Nc4cc(C(=O)NCCN5CC6CCC5CC6)cnc4C)c3s2)cn1` [Example 142, N-(5-((2-(2-azabicyclo[2.2.2]octan-2-yl)ethyl)carbamoyl)-2-methylpyridin-3-yl)-2-(1-(2-methoxyethyl)-1H-pyrazol-4-yl)pyrazolo[5,1-b]thiazole-7-carboxamide], for which the IC50 at PDGFRβ came out at 71.7 nM; in assay [1] it was 0.5 nM; in assay [2] it was 4.2 nM.

For `Cc1ncc(C(=O)NCCN2CC3CCC2CC3)cc1NC(=O)c1cnn2cc(-c3cnn(CS(C)(=O)=O)c3)sc12` [Example 143, N-(5-((2-(2-azabicyclo[2.2.2]octan-2-yl)ethyl)carbamoyl)-2-methylpyridin-3-yl)-2-(1-((methylsulfonyl)methyl)-1H-pyrazol-4-yl)pyrazolo[5,1-b]thiazole-7-carboxamide], the IC50 on PDGFRβ is 998 nM; in assay [1], 0.6 nM; in assay [2] it was 5.3 nM.

On to `Cc1ncc(C(=O)NCCN2CC3CCC2CC3)cc1NC(=O)c1cnn2cc(-c3cnn(C4COC4)c3)sc12` [Example 144, N-(5-((2-(2-azabicyclo[2.2.2]octan-2-yl)ethyl)carbamoyl)-2-methylpyridin-3-yl)-2-(1-(oxetan-3-yl)-1H-pyrazol-4-yl)pyrazolo[5,1-b]thiazole-7-carboxamide], for which the IC50 on PDGFRβ stood at 106 nM; in assay [1] it was 0.3 nM; in assay [2], 3.6 nM.

`Cc1ncc(C(=O)NCCN2CC3CCC2CC3)cc1NC(=O)c1cnn2cc(-c3ccc4oc(=O)[nH]c4c3)sc12` [Example 145, N-(5-((2-(2-azabicyclo[2.2.2]octan-2-yl)ethyl)carbamoyl)-2-methylpyridin-3-yl)-2-(2-oxo-2,3-dihydrobenzo[d]oxazol-5-yl)pyrazolo[5,1-b]thiazole-7-carboxamide]: the IC50 at PDGFRβ came to 407 nM; in assay [1], 0.2 nM; in assay [2] it was 1.4 nM.

On to `CC(=O)Nc1ccnc(-c2cn3ncc(C(=O)Nc4cc(C(=O)NCCN5CC6CCC5CC6)cnc4C)c3s2)c1` [Example 146, N-(5-((2-(2-azabicyclo[2.2.2]octan-2-yl)ethyl)carbamoyl)-2-methylpyridin-3-yl)-2-(4-acetamidopyridin-2-yl)pyrazolo[5,1-b]thiazole-7-carboxamide], for which the IC50 on PDGFRβ was found to be 858 nM; in assay [1], 0.6 nM; in assay [2], 4.3 nM.

Regarding `CC(=O)Nc1cncc(-c2cn3ncc(C(=O)Nc4cc(C(=O)NCCN5CC6CCC5CC6)cnc4C)c3s2)c1` [Example 147, N-(5-((2-(2-azabicyclo[2.2.2]octan-2-yl)ethyl)carbamoyl)-2-methylpyridin-3-yl)-2-(5-acetamidopyridin-3-yl)pyrazolo[5,1-b]thiazole-7-carboxamide], the IC50 on PDGFRβ was over 2000 nM; in assay [1], 0.8 nM; in assay [2], 6.9 nM.

With `Cc1ncc(C(=O)NCCN2CC3CCC2CC3)cc1NC(=O)c1cnn2cc(-c3ccncc3)sc12` [Example 148, N-(5-((2-(2-azabicyclo[2.2.2]octan-2-yl)ethyl)carbamoyl)-2-methylpyridin-3-yl)-2-(pyridin-4-yl)pyrazolo[5,1-b]thiazole-7-carboxamide], the IC50 on PDGFRβ is 28.9 nM; in assay [1] it was 0.3 nM; in assay [2], 4.2 nM.

In the case of `Cc1ncc(C(=O)NCCN2CC3CCC2CC3)cc1NC(=O)c1cnn2cc(-c3cccnc3)sc12` [Example 149, N-(5-((2-(2-azabicyclo[2.2.2]octan-2-yl)ethyl)carbamoyl)-2-methylpyridin-3-yl)-2-(pyridin-3-yl)pyrazolo[5,1-b]thiazole-7-carboxamide], the IC50 at PDGFRβ was determined as 36.2 nM; in assay [1], 0.3 nM; in assay [2] it was 5 nM.

On to `Cc1ncc(C(=O)NCCN2CC3CCC2CC3)cc1NC(=O)c1cnn2cc(-c3cnn(CC(N)=O)c3)sc12` [Example 150, N-(5-((2-(2-azabicyclo[2.2.2]octan-2-yl)ethyl)carbamoyl)-2-methylpyridin-3-yl)-2-(1-(2-amino-2-oxoethyl)-1H-pyrazol-4-yl)pyrazolo[5,1-b]thiazole-7-carboxamide], for which the results for the IC50 (at PDGFRβ; in assay [1]; in assay [2]) were over 2000 nM, 0.6 nM and 5.5 nM, respectively.

As to `Cc1ncc(C(=O)NCCN2CC3CCC2CC3)cc1NC(=O)c1cnn2cc(-c3cnn(CC#N)c3)sc12` [Example 151, N-(5-((2-(2-azabicyclo[2.2.2]octan-2-yl)ethyl)carbamoyl)-2-methylpyridin-3-yl)-2-(1-(cyanomethyl)-1H-pyrazol-4-yl)pyrazolo[5,1-b]thiazole-7-carboxamide], the IC50 on PDGFRβ stood at 240 nM; in assay [1], 0.3 nM; in assay [2], 2.8 nM.

`Cc1ncc(C(=O)NCCN2CC(F)(F)C2)cc1NC(=O)c1cnn2cc(-c3ccncc3)sc12` [Example 152, N-(5-((2-(3,3-difluoroazetidin-1-yl)ethyl)carbamoyl)-2-methylpyridin-3-yl)-2-(pyridin-4-yl)pyrazolo[5,1-b]thiazole-7-carboxamide]: the half-inhibitory concentration (IC50) is 66.2 nM on PDGFRβ, 0.4 nM in assay [1] and 12.4 nM in assay [2].

`Cc1ncc(C(=O)NCCN2CCC3(CC3)C2)cc1NC(=O)c1cnn2cc(-c3ccncc3)sc12` [Example 153, N-(5-((2-(5-azaspiro[2.4]heptan-5-yl)ethyl)carbamoyl)-2-methylpyridin-3-yl)-2-(pyridin-4-yl)pyrazolo[5,1-b]thiazole-7-carboxamide]: the IC50 worked out at 106 nM at PDGFRβ, 0.4 nM in assay [1] and 18 nM in assay [2].

As for `Cc1ncc(C(=O)NCCN2CCC(F)(F)CC2)cc1NC(=O)c1cnn2cc(-c3ccncc3)sc12` [Example 154, N-(5-((2-(4,4-difluoropiperidin-1-yl)ethyl)carbamoyl)-2-methylpyridin-3-yl)-2-(pyridin-4-yl)pyrazolo[5,1-b]thiazole-7-carboxamide], the IC50 was found to be 8.7 nM on PDGFRβ, 0.3 nM in assay [1] and 2.4 nM in assay [2].

For the molecule `Cc1ncc(C(=O)NCCN2CC(C)(C)C2)cc1NC(=O)c1cnn2cc(-c3ccncc3)sc12` [Example 155, N-(5-((2-(3,3-dimethylazetidin-1-yl)ethyl)carbamoyl)-2-methylpyridin-3-yl)-2-(pyridin-4-yl)pyrazolo[5,1-b]thiazole-7-carboxamide], the results for the IC50 (on PDGFRβ; in assay [1]; in assay [2]) were 153 nM, 1 nM and 39.4 nM, respectively.

`Cc1ncc(C(=O)NCCN2CCC(C)(C)C2)cc1NC(=O)c1cnn2cc(-c3ccncc3)sc12` [Example 156, N-(5-((2-(3,3-dimethylpyrrolidin-1-yl)ethyl)carbamoyl)-2-methylpyridin-3-yl)-2-(pyridin-4-yl)pyrazolo[5,1-b]thiazole-7-carboxamide]: the IC50 at PDGFRβ worked out at 26.2 nM; in assay [1], 0.4 nM; in assay [2] it was 9.8 nM.

Consider `Cc1ncc(C(=O)NCCN2CCC(F)(F)CC2)cc1NC(=O)c1cnn2cc(-c3cccnc3)sc12` [Example 157, N-(5-((2-(4,4-difluoropiperidin-1-yl)ethyl)carbamoyl)-2-methylpyridin-3-yl)-2-(pyridin-3-yl)pyrazolo[5,1-b]thiazole-7-carboxamide], for which the IC50 was determined as 21.2 nM on PDGFRβ, 0.6 nM in assay [1] and 5.9 nM in assay [2].

In the case of `Cc1ncc(C(=O)NCCN2CC(C)(C)C2)cc1NC(=O)c1cnn2cc(-c3cccnc3)sc12` [Example 158, N-(5-((2-(3,3-dimethylazetidin-1-yl)ethyl)carbamoyl)-2-methylpyridin-3-yl)-2-(pyridin-3-yl)pyrazolo[5,1-b]thiazole-7-carboxamide], the IC50 on PDGFRβ was found to be 156 nM; in assay [1], 0.9 nM; in assay [2], 32.5 nM.
